# Read-outs that look alike come from different tables or passages of the source.
# How the values were obtained:
# HIV-stimulated pDC [1] = test: Activation markers and cytokine mRNA in HIV-stimulated pDC (RT-qPCR, flow cytometry); format: cell-based, human
# pDC = test: Cytotoxicity of compounds on cultured pDC
# CXCR4 [2] = target: T1, CXCR4 (Homo sapiens, UniProt P61073); test: CXCR4 internalization and co-localization in pDC (microscopy); format: cell-based; conditions: confocal microscopy
# Method: Cells were then incubated with anti-CXCR4 antibody (Biolegend, San Diego, Calif.) in saturation buffer PBS-BSA 0.5% for membrane staining or in permeabilizing buffer containing 1% saponin with monoclonal antibody anti-TRAIL (Biolegend, San Diego, Calif., USA). […] Nucleus was stained using DAPI (Molecular Probes, Paisley, UK). Slides were mounted with Fluoromount-G (eBioscience, CA, USA) and scanned with a Nikon Eclipse 90i Upright microscope (Nikon Instruments Europe, Badhoevedorp, The Netherlands) using a 100× Plan Apo VC piezo objective (NA 1.4) and Chroma bloc filters (ET-DAPI, ET-GFP) and were subsequently deconvoluted with a Meinel algorithm and 8 iterations and analyzed using Metamorph® (MDS Analytical Technologies, Winnersh, UK). TRAIL/DAPI/Overlay/Confocal plane: Representative 2D focal plan. Overlay with bright: Bright. […]
# In other cases, cells were cultured overnight in media alone then were washed in ice-cold PBS-BSA 0.2% and stained with CXCR4 antibody (R&D Systems) for 1 hour at 4° C. […] Data are expressed as the mean percentage ±SEM mean channel fluorescence intensity (MFI) values for residual surface expression and intracellular staining. […]
# 7 pictures were taken from each slide for each Z section framing the nucleus. Quantification of the colocalization in the cytoplasm of purified pDC using Mander's Coefficient was obtained after analyze by JACoP pluging in ImageJ. […]
# HIV-stimulated pDC [3] = test: IFN-α / type I IFN production by HIV-stimulated purified pDC (ELISA); format: cell-based, human
# HIV-stimulated pDC [4] = test: TRAIL relocalization to the membrane of HIV-stimulated pDC (3D microscopy); format: cell-based, human
# Method: Cells were then incubated with anti-CXCR4 antibody (Biolegend, San Diego, Calif.) in saturation buffer PBS-BSA 0.5% for membrane staining or in permeabilizing buffer containing 1% saponin with monoclonal antibody anti-TRAIL (Biolegend, San Diego, Calif., USA). […] Nucleus was stained using DAPI (Molecular Probes, Paisley, UK). Slides were mounted with Fluoromount-G (eBioscience, CA, USA) and scanned with a Nikon Eclipse 90i Upright microscope (Nikon Instruments Europe, Badhoevedorp, The Netherlands) using a 100× Plan Apo VC piezo objective (NA 1.4) and Chroma bloc filters (ET-DAPI, ET-GFP) and were subsequently deconvoluted with a Meinel algorithm and 8 iterations and analyzed using Metamorph® (MDS Analytical Technologies, Winnersh, UK). TRAIL/DAPI/Overlay/Confocal plane: Representative 2D focal plan. Overlay with bright: Bright. Reconvolution overlays: 2D projections of the maximum intensity pixels along the Z-axis.
# 7 pictures were taken from each slide for each Z section framing the nucleus. Quantification of the colocalization in the cytoplasm of purified pDC using Mander's Coefficient was obtained after analyze by JACoP pluging in ImageJ.
# [5] = system: pristane-induced SLE in Balb/c mice; test: Pristane-induced systemic lupus erythematosus (SLE) model in Balb/c mice; format: in vivo, mouse; conditions: 3, 10, 30 mg/kg IP QD
# Method: Receive and quarantine (SOP 560) 70 female Balb/C (20-25 g) mice and house in filter-topped cages supplied with autoclaved bedding.
# The animals are weighed, ear tagged for individual identification and randomly assigned to 8 treatment groups of 8 animals each and two groups of 3 animals (for pre-tolerance at 30 mg/kg of survival).
# The test items compounds clobenpropit (CB) and IT1t are stored at 4° C.
# Mouse weights are recorded twice a week, and daily observations for clinical signs.
# Collected sera are stored at −80° C. for measurements of autoantibody on weeks 4, 8 and 10. (Predose will kept at −80° C. for potential use). Anti-dsDNA level is a standard screening readout for identifying efficacy of test compounds in a SLE model.
# Measurements: weeks 4, 8, 10: (1) autoantibody (anti-dsDNA), collagen and cytokines TNFα, IL-6 and TRAIL by ELISA and (2) ANA antibody by IFA.
# [6] = system: NK cells activated by K562 cells; test: IFN-γ, TNF-α and CD107a expression by NK cells activated by K562 cells (flow cytometry); format: cell-based; conditions: treated 1 hour, then activated by K562 cells
# [7] = system: collagen-induced arthritis in DBA1/J mice; test: Therapeutic collagen-induced arthritis model in DBA1/J mice; format: in vivo, mouse; conditions: for inhibition of disease severity: Day 28-42, at termination (Day 42); for average AI (Arthritic Index): maximum AI=16
# Method: 80 DBA1/J mice (male, 7-8 weeks) was received and placed in quarantine for 3 days with daily inspections. Ear tag mice for individual identification.
# Individual mouse weights were recorded. Hind paw thickness were recorded by digital caliper. 80 mice subcutaneous were injected with collagen/CFA emulsion (0.05 ml/mouse; 100 μg/mouse collagens in CFA) using a 1 ml syringe fitted with a 25G needle. Mice returned to cages.
# 80 mice were boosted with collagen/ICFA emulsion. Then their individual weights were recorded.
# Mice were scored for signs of arthritis:
# 7) Calculate Arthritic Index (AI) by addition of individual paw scores and record.
# Mice with an AI score within a range of 2-6 were selected for assignment to groups for therapeutic dosing as in Table 4.
# Begin intraperitoneal (IP) dosing once daily (QD) according to Table 4.
# The compounds clobenpropit (CB) and IT1t were tested. CB and IT1t were stored at 4° C. […] These compounds were doses 7 days per week (Saturday and Sunday included) daily for 14 days.
# Mice were weighed, scored for signs or arthritis, and hind paw thickness is measured by digital caliper three-times weekly (Monday, Wednesday and Friday). Any adverse reactions to treatment were recorded.
# Termination: AI score were recorded for each limb. The paw thickness of the hind limbs is measured with digital caliper. Mice were anesthetized and exsanguinated into pre-chilled EDTA-tubes.
# 2) Plasma was assayed by ELISA for IL-1β, IL-6, TRAIL. Then, all limbs were collected.
# CXCR4 [8] = target: T1, CXCR4
# [9] = Solubility of test compounds
# [10] = system: HIV or LPS stimulated monocytes; test: IFN-γ mRNA in monocytes stimulated with HIV or LPS (RT-qPCR); format: cell-based; conditions: RT-qPCR normalized to RPL13A
# Method: Data shown are representative of two independent experiments.
# Monocytes were pre-incubated with clobenpropit (CB), IT1t or chloroquine before being activated by HIV and LPS. IFN-γ levels were measured by RT-qPCR and normalized to RPL13A mRNA expression.
# [11] = system: human Flu-activated primary PBMC; test: cells; format: cell-based
# [12] = system: 129S8 mice infected with Influenza A virus strain X31 (H3N2); conditions: mouse, in vivo
# CXCR4 [13] = target: T1, CXCR4; conditions: Jurkat cells, 1 mM, 4° C. for 30 min
# H4R = H4R (Homo sapiens, UniProt Q9H3N8); format: cell-based; conditions: H4R siRNA, human primary pDC
# H4R, sequence (Q9H3N8 whole entry): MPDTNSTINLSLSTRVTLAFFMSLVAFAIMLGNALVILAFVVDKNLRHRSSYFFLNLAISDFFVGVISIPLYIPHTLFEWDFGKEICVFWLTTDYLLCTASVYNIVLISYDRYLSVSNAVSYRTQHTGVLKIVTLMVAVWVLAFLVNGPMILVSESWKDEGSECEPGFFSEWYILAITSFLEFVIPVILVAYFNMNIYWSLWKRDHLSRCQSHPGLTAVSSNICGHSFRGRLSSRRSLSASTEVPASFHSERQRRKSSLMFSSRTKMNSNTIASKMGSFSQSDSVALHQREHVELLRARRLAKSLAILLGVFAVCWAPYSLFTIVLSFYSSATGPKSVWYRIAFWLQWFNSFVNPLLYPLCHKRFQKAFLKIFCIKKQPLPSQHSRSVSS
# flu-exposed human PBMC = format: cell-based
# [14] = 3 mg/kg IP once daily, at termination (Day 42)
# [15] = 10 mg/kg IP once daily, at termination
# [16] = 30 mg/kg IP once daily, at termination
# T1 sequence (P61073 whole entry): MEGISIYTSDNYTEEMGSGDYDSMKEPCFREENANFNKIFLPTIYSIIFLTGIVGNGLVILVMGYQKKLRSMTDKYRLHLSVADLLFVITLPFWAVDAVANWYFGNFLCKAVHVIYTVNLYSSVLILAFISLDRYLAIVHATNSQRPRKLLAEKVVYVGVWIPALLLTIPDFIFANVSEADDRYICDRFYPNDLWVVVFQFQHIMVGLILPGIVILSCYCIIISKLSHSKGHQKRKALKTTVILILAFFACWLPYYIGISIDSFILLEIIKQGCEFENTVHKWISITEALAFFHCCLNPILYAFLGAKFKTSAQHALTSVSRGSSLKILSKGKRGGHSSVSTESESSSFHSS
compound,measurement,setting,value
CXCL12: CXCR4 natural ligand,IFN-α/β mRNA expressions by HIV stimulated pDC,"HIV-stimulated pDC [1]; 62.5 nM, pre-incubation 15 min, 30 min, 60 min",did not reduce
same,type I IFN mRNA expression by HIV stimulated pDC,HIV-stimulated pDC [1]; 10 μM,did not inhibit
"NCCc1cc(=O)oc2c3c4c(cc12)CCCN4CCC3 [FFN-511, FFN511]",cytotoxic effect on pDC,pDC; 50 μM,without any obvious cytotoxic effect
same,co-localization with CXCR4 in pDC,CXCR4 [2],strong degree of co-localization
same,IFN type I production by HIV-stimulated pDC,HIV-stimulated pDC [3]; 50 μM,strongly reduced
same,TRAIL localization to the cell membrane in HIV-stimulated pDC,HIV-stimulated pDC [4],significantly inhibited
same,iNOS or IL-15 gene expression,"HIV-stimulated pDC [1]; HIV-1-stimulated pDC, RT-qPCR",neither CB nor FFN-511 affected
same,"transcription of virus-induced genes (TRAIL, IFNs, IL6, IL8, IL10, CXCL10, ISG56) induced in pDC by HIV-1","HIV-stimulated pDC [1]; RT-qPCR profiling, normalized to RPL13A",dramatically inhibited
CC1(C)CN2C(CS/C(=N\C3CCCCC3)NC3CCCCC3)=CSC2=N1 [IT1t],toxicity at the efficient concentrations,pDC,not toxic
same,toxicity at higher concentrations,pDC; diluted in DMSO,some toxicity
same,symptoms of pristane-Induced Systemic Lupus Erythematosus,[5],reduce symptoms
same,ds-DNA level,[5]; compared to group 1 (vehicle),inhibition
same,"IFN-γ, TNF-α and CD107a expression by NK cells",[6],decrease
same,reduction in terminal plasma concentration of IL-1β,[7]; 3 mg/kg IP once daily,49%
same,reduction in terminal plasma concentration of TRAIL,[7]; 3 mg/kg IP once daily,62%
same,inhibition of disease severity,[7]; 3 mg/kg IP once daily,no amelioratory effect
same,average AI (Arthritic Index),[7]; [14],13.1
same,reduction in terminal plasma concentration of IL-1β,[7]; 10 mg/kg IP once daily,53%
same,reduction in terminal plasma concentration of IL-6,[7]; 10 mg/kg IP once daily,30%
same,reduction in terminal plasma concentration of TRAIL,[7]; 10 mg/kg IP once daily,46%
same,reduction in disease severity,[7]; [15],40%
same,average AI (Arthritic Index),[7]; [15],7.9
same,reduction in terminal plasma concentration of IL-1β,[7]; 30 mg/kg IP once daily,69%
same,reduction in terminal plasma concentration of IL-6,[7]; 30 mg/kg IP once daily,66%
same,reduction in terminal plasma concentration of TRAIL,[7]; 30 mg/kg IP once daily,51%
same,reduction in disease severity,[7]; [16],63%
same,average AI (Arthritic Index),[7]; [16],4.9
same,disease progression over the dose range,"[7]; 3, 10 and 30 mg/kg daily intraperitoneal injection",dose-dependent inhibition
same,type I IFN reduction in CXCR4 siRNA-treated cells,"CXCR4 [8]; pDC stimulated with HIV X4 or HIV R5, active with control siRNA",lost its biological activity
same,solubility,"[9]; PBS, aqueous buffer",> 50 mg/mL
same,solubility,[9]; water,> 50 mg/mL
same,Therapeutic index (Ratio TC50/EC50),human primary PBMC,33.5
same,effect on cytokine production of activated pDC compared with CB,HIV-stimulated pDC [1],stronger effect
same,"IFN-α, IFN-β and TRAIL expression by HIV-stimulated pDC","HIV-stimulated pDC [1]; 1 hour pre-culture, HIV X4",inhibited
same,CC50,in vitro; human,238 ± 21 µM
same,IFN-γ expression by HIV or LPS stimulated monocytes,[10],inhibit
same,EC50,[11]; read-out: EC50,7.1 ± 1 µM
NCCc1c[nH]cn1 [Histamine],cytotoxicity on purified pDC,pDC; 10 μM,without obvious toxicity
same,"IFN-α, IFN-β and IFN-λ2/3 protein production in bronchioalveolar lavage (BAL) fluid",[12],a trend towards IFN reduction that was not statistically significant
same,binding of the CXCR4 antibody 12G5 on T cells,CXCR4 [13],inhibited
same,effect of CXCR4 gene silencing on the inhibitory effect on type I IFN and TRAIL,CXCR4 [8]; pDC stimulated by CXCR4-tropic HIV-1,suppressed
same,Therapeutic index (Ratio TC50/EC50),human primary PBMC,<1500
same,TC50,human primary PBMC; human,<2000 µM
same,inhibitory effect on pDC activation / IFN-α production by HIV-1,"HIV-stimulated pDC [3]; purified pDC, 10 μM",active
same,"effect of H4R knock down on inhibitory activity on IFN-α, IFN-β and TRAIL productions by HIV-stimulated pDC",H4R,did not block
same,IFN-α/β and IFN-λ2/3 mRNA levels,flu-exposed human PBMC,significantly reduced
same,EC50,[11],1.4 ± 1 µM
"NCCCNCCCCNCCCN [spermin, spermine]","IFN-γ, TNF-α and CD107a expression by NK cells",[6],decrease
C[C@]12C=CC(=O)C=C1CC[C@@H]1[C@@H]2[C@@H](O)C[C@@]2(C)[C@H]1CC[C@]2(O)C(=O)CO [prednisolone],reduction in terminal plasma concentration of IL-1β,[7]; 3 mg/kg IP once daily,62%
same,reduction in terminal plasma concentration of IL-6,[7]; 3 mg/kg IP once daily,79%
same,reduction in terminal plasma concentration of TRAIL,[7]; 3 mg/kg IP once daily,72%
same,inhibition of disease severity,[7]; 3 mg/kg IP once daily,82%
same,average AI (Arthritic Index),[7]; [14],2.4
c1cc(CN2CCCNCCNCCCNCC2)ccc1CN1CCCNCCNCCCNCC1 [AMD3100],"type I IFN and TRAIL expression by HIV-activated pDC, compound alone",HIV-stimulated pDC [1],did not block
same,effect on biological activities of histamine and CB on HIV activated-pDC,HIV-stimulated pDC [1]; pre-incubation 1 hour (20 μM) before histamine or CB,drastically abolished
"NCCc1c[nH]c2ccc(O)cc12 [Serotonin, serotonin]",CC50,in vitro,1500 ± 54 µM
CCN(CC)CCCC(C)Nc1ccnc2cc(Cl)ccc12 (stereo not drawn) [chloroquine],IFN-γ expression by HIV or LPS stimulated monocytes,[10],inhibit
